Experimental data taken from patent US20250353864A1, “INDAZOLE CONTAINING MACROCYCLES AND THEIR USE” (BLOSSOMHILL THERAPEUTICS, INC., priority 2022, published 2025).

How the values were obtained:
Type in all cases: biochemical
[1] = biological target: EGFR WT (Homo sapiens (Human), UniProt P00533); assay: HotSpot radiometric kinase assay (Reaction Biology), EGFR WT; details: 10 μM ATP
Outline: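 IC50 values come from curve fits of ^33P incorporation captured on P81 filters after acid washing. Kinase reactions ran 120 min at room temperature with 10 μM ATP, added about 20 min after compound. Buffer was Hepes pH 7.5 containing Mg, DTT and 1% DMSO.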

[2] = biological target: EGFR (D770_N771insNPG) (Homo sapiens (Human), UniProt P00533, INS770NPG); assay: HotSpot radiometric kinase assay, EGFR (D770_N771insNPG); details: 10 μM ATP, read-out: EGFR (Δ770_N771insNPG) IC50
Outline: (§1)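 Enzyme and substrate pairs were exposed to inhibitor for roughly 20 min before radiolabelled ATP (10 μM final) was introduced; the reaction proceeded 120 min at ambient temperature in pH 7.5 buffer with 1% DMSO, and phosphorylated product was captured on P81 filters for IC50 determination.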

[3] = biological target: EGFR Δ746-750 mutant (Homo sapiens (Human), UniProt P00533, DEL746-750); assay: HotSpot radiometric kinase assay, EGFR Δ746-750 mutant; details: 10 μM ATP
Outline: as §1

[4] = biological target: EGFR Δ746-750/C797S mutant (Homo sapiens (Human), UniProt P00533, C797S/DEL746-750); assay: HotSpot radiometric kinase assay, EGFR Δ746-750/C797S mutant; details: 10 μM ATP
Outline: as §1

[5] = biological target: EGFR L858R mutant (Homo sapiens (Human), UniProt P00533, L858R); assay: HotSpot radiometric kinase assay, EGFR L858R mutant; details: 10 μM ATP
Outline: as §1

[6] = biological target: EGFR L858R/T790M/C797S mutant (Homo sapiens (Human), UniProt P00533, C797S/L858R/T790M); assay: HotSpot radiometric kinase assay, EGFR L858R/T790M/C797S mutant; details: 10 μM ATP
Outline: as §1

[7] = biological target: ALK (Homo sapiens (Human), UniProt Q9UM73); assay: HotSpot radiometric kinase assay, inhibition of ALK kinase activity; details: 10 μM ATP
Method: Briefly, specific kinase/substrate pairs along with required cofactors were prepared in reaction buffer; 20 mM Hepes pH 7.5, 10 mM […], 1 mM EGTA, 0.02% Brij35, 0.02 mg/ml BSA, 0.1 mM Na3VO4, 2 mM DTT, 1% DMSO. Compounds were delivered into the reaction, followed […] later by addition of a mixture of ATP (Sigma, St. Louis MO) and ^33P ATP (Perkin Elmer, Waltham MA) to a final concentration of 10 μM. Reactions were carried out at room temperature for 120 min, followed by spotting of the reactions onto P81 ion exchange filter paper (Whatman Inc., Piscataway, NJ). Unbound phosphate was removed by extensive washing of filters in 0.75% phosphoric acid. […] IC50 values and curve fits were obtained using Prism (GraphPad Software).

[8] = biological target: CLK1 (Homo sapiens (Human), UniProt P49759); assay: Inhibition of CLK1 kinase activity evaluated at Nanosyn (ADP-Glo); details: ADP-Glo luminescence
Outline: (§2)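 Percent inhibition derived from luminescent ADP detection (ADP-Glo), normalised to DMSO-only and enzyme-free wells. Reactions ran in HEPES pH 7.5 buffer with Mg2+, Triton X-100 and BSA, 1% DMSO, ATP-initiated, for an assay-specific time.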

[9] = biological target: CLK2 (Homo sapiens (Human), UniProt P49760); assay: Inhibition of CLK2 kinase activity evaluated at Nanosyn (ADP-Glo); details: ADP-Glo luminescence
Outline: as §2

[10] = biological target: CLK3 (Homo sapiens (Human), UniProt P49761); assay: Inhibition of CLK3 kinase activity evaluated at Nanosyn (ADP-Glo); details: ADP-Glo luminescence
Outline: as §2

[11] = biological target: CLK4 (Homo sapiens (Human), UniProt Q9HAZ1); assay: Inhibition of CLK4 kinase activity evaluated at Nanosyn (ADP-Glo); details: ADP-Glo luminescence
Outline: as §2

[12] = biological target: EGFR L858R/T790M mutant (Homo sapiens (Human), UniProt P00533, L858R/T790M); assay: HotSpot radiometric kinase assay, EGFR L858R/T790M mutant; details: 10 μM ATP
Outline: as §1

EGFR Δ746-750/C797S mutant, sequence (P00533 other isoform, or with tags, fused parts or gaps C797S/del 1-668/del 746-750 limits assumed): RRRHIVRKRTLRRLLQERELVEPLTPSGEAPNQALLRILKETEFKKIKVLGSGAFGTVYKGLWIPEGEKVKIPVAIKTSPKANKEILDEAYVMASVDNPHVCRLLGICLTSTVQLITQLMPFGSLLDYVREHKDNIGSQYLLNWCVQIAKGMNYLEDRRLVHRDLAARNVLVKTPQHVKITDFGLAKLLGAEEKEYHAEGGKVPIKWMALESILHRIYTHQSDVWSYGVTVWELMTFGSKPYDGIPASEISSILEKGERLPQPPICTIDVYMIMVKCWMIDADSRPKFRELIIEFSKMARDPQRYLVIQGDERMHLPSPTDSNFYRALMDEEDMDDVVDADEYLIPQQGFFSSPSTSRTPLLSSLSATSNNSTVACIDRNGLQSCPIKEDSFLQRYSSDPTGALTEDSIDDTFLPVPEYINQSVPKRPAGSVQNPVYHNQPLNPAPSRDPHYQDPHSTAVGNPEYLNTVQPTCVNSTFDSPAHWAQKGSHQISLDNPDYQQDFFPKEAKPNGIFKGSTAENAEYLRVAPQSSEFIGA
EGFR (D770_N771insNPG), sequence (P00533 other isoform, or with tags, fused parts or gaps del 1-668/ins NPG behind 770 limits assumed): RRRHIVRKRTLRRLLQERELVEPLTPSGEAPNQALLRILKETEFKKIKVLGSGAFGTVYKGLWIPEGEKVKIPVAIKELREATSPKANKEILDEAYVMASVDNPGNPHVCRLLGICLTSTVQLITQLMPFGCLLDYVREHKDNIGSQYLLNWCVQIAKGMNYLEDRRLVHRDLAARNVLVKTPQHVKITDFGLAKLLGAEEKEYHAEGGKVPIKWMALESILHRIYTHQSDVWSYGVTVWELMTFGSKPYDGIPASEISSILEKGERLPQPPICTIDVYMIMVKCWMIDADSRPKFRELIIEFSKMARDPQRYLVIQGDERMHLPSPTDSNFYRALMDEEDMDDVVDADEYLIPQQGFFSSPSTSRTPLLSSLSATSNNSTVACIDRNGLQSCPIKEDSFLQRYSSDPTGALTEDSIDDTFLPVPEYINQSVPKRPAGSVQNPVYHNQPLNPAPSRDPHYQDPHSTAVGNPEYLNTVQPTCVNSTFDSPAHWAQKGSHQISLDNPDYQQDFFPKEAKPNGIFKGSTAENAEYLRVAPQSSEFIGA
EGFR WT, sequence (P00533 25-1210): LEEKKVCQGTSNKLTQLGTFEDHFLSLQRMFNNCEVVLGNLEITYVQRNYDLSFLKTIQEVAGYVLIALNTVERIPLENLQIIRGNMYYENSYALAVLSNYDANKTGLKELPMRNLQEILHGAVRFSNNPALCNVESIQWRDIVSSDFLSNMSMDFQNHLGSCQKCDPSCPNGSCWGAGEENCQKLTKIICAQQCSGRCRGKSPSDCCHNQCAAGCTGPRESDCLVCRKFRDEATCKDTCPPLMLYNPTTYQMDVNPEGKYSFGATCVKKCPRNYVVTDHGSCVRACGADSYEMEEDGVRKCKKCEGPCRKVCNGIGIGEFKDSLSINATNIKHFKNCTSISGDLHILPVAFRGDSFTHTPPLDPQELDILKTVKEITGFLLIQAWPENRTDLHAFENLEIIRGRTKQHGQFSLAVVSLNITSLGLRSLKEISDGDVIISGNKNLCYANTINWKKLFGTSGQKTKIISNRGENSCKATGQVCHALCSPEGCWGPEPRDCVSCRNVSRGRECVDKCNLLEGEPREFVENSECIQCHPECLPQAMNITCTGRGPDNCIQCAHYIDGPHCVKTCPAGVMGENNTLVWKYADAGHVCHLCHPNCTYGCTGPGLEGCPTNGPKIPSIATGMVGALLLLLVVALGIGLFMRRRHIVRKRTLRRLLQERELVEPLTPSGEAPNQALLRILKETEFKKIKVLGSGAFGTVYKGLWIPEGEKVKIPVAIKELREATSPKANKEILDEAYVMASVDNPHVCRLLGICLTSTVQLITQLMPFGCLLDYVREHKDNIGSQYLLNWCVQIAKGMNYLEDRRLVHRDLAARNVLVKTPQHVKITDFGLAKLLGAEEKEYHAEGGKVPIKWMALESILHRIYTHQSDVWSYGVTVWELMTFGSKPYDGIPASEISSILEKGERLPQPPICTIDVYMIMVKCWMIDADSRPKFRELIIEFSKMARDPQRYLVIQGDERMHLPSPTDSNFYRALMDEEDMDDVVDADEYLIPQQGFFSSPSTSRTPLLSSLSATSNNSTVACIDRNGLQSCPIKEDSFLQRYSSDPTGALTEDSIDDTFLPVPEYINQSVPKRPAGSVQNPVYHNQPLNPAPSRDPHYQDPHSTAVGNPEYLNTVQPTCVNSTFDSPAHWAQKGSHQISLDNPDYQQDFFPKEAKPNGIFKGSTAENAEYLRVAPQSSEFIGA
ALK, sequence (Q9UM73 19-1620): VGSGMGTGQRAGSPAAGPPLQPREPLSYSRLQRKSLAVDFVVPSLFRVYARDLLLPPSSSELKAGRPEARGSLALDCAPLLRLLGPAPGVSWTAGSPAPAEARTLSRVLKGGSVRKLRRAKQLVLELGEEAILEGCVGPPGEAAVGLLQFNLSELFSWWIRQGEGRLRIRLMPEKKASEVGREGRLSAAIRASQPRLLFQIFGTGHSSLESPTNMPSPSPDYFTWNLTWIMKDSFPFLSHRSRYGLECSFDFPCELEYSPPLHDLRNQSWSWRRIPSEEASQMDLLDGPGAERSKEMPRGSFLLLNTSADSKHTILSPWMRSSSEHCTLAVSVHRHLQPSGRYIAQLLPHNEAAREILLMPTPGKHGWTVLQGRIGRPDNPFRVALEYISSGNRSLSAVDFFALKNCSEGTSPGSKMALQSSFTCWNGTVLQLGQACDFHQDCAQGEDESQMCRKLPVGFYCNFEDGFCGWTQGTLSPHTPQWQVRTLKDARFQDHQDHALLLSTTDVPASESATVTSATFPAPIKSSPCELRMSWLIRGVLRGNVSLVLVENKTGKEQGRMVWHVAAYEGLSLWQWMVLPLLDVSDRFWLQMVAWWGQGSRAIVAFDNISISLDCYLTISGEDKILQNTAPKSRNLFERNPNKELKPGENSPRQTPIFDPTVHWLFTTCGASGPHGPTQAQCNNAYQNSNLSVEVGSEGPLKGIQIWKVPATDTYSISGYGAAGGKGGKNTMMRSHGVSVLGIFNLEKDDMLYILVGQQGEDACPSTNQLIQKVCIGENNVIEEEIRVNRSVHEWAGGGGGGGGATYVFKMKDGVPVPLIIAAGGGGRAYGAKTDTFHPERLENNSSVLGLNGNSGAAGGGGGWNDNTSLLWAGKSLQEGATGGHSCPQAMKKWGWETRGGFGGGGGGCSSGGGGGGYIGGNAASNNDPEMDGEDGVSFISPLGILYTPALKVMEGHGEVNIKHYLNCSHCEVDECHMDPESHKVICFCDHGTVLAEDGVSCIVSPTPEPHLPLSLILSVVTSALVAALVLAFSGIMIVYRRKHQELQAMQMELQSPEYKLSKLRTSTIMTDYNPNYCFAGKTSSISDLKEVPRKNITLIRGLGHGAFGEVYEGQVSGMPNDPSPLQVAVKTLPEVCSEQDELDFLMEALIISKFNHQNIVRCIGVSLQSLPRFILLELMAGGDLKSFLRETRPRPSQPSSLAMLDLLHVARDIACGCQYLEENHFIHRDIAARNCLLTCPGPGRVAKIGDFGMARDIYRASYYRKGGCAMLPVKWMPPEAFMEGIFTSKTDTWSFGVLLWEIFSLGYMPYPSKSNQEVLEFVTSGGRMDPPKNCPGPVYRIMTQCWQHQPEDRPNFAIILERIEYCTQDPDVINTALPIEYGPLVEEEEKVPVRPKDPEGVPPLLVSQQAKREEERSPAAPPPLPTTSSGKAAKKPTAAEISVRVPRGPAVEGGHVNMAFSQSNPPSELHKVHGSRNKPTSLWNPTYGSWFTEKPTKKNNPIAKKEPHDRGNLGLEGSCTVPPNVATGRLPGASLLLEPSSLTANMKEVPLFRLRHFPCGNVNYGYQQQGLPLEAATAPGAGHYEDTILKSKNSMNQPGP
EGFR L858R mutant, sequence (P00533 25-1210 L858R): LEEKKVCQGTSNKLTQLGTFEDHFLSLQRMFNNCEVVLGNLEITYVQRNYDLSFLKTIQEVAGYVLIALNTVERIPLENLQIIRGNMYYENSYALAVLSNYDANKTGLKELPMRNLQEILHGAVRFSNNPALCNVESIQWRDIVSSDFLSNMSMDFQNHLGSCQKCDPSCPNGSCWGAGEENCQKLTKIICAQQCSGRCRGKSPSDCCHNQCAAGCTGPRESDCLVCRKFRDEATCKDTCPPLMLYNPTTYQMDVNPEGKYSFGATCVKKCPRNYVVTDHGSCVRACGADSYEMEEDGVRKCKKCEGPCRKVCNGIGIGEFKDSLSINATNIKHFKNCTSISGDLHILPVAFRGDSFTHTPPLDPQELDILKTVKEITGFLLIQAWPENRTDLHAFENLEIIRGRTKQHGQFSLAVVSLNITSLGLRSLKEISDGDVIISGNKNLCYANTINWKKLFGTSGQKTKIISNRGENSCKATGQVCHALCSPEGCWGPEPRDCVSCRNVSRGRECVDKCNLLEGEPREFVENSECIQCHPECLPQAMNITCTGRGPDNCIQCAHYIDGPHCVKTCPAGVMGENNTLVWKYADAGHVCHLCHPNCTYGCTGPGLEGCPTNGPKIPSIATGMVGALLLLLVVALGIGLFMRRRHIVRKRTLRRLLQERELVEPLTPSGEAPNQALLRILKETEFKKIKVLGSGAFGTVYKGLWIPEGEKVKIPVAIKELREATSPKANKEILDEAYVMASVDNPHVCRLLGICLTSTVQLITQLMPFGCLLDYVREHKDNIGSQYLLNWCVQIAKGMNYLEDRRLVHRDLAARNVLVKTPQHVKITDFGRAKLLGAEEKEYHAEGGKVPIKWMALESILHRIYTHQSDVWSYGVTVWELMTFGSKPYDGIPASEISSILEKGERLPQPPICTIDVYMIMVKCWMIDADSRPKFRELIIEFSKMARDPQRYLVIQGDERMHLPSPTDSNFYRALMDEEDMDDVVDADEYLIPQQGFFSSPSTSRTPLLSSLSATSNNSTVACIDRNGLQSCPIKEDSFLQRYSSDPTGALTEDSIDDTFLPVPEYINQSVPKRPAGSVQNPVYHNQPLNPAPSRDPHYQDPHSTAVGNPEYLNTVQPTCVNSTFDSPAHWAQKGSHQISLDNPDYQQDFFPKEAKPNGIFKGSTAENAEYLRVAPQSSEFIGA

IC50 [1] | IC50 [2] | IC50 [3] | IC50 [4] | IC50 [5] | IC50 [6] | IC50 [7] | IC50 [8] | IC50 [9] | IC50 [10] | IC50 [11] | IC50 [12] | Compound
 |  |  |  |  |  | 5.79 nM | 0.332 nM | 36.5 nM | 0.862 nM | 0.225 nM |  | CCc1nn(C)c2c1/C=C/c1n[nH]c3ccc(cc13)-c1cnn(C)c1OCCOC2 [Example 300, (17E)-16-ethyl-8,14-dimethyl-2,8,10,11,13,14-hexahydro-3,5-etheno[1,4]dioxacyclopentadecino[10,11-c:15,14-c′:6,7-c″]tripyrazole]
 |  |  |  |  |  | 19.9 nM | 1.19 nM | 1000 nM | 1.23 nM | 1.33 nM |  | Cn1nc(C#N)c2c1COCCOc1c(cnn1C)-c1ccc3[nH]nc(c3c1)/C=C/2 [Example 302, (17E)-8,14-dimethyl-2,8,10,11,13,14-hexahydro-3,5-etheno[1,4]dioxacyclopentadecino[10,11-c:15,14-c′:6,7-c″]tripyrazole-16-carbonitrile]
 |  |  |  |  |  | 32.2 nM | 0.324 nM | 69.7 nM | 0.2 nM | 0.155 nM |  | Cc1onc2c1/C=C/c1n[nH]c3ccc(cc13)-c1cnn(C)c1OCCOC2 [Example 320, (17E)-8,16-dimethyl-2,8,10,11-tetrahydro-13H-3,5-ethenodipyrazolo[3′,4′:10,11;4″,3″:14,15] [1,4]dioxacyclopentadecino[6,7-c][1,2]oxazole]
 |  |  |  |  |  | 20.8 nM | 1.35 nM | 418 nM | 1.92 nM | 0.847 nM |  | Cc1noc2c1/C=C/c1n[nH]c3ccc(cc13)-c1cnn(C)c1OCCOC2 [Example 321, (17E)-8,16-dimethyl-2,10,11,13-tetrahydro-8H-3,5-ethenodipyrazolo[3′,4′:10,11;4″,3″:14,15] [1,4]dioxacyclopentadecino[7,6-d][1,2]oxazole]
 |  |  |  |  |  | 59.9 nM | 1.04 nM | 34.9 nM | 0.322 nM | 0.636 nM |  | Cc1snc2c1/C=C/c1n[nH]c3ccc(cc13)-c1cnn(C)c1OCCOC2 [Example 322, (17E)-8,16-dimethyl-2,8,10,11-tetrahydro-13H-3,5-ethenodipyrazolo[3′,4′:10,11;4″,3″:14,15] [1,4]dioxacyclopentadecino[6,7-c][1,2]thiazole]

Continued, molecule first:

Compound | IC50 [1] | IC50 [2] | IC50 [3] | IC50 [4] | IC50 [5] | IC50 [6] | IC50 [7] | IC50 [8] | IC50 [9] | IC50 [10] | IC50 [11] | IC50 [12]
Cc1c2c(nn1C)CN(C)C[C@H](C)Oc1c(cnn1C)-c1ccc3[nH]nc(c3c1)/C=C/2 [Example 58, (10S,17E)-8,10,12,15,16-pentamethyl-2,10,11,12,13,15-hexahydro-8H-3,5-ethenotripyrazolo[3,4-f:3′,4′-j:4″,3″- n][1,4]oxazacyclopentadecine] | 49.2 nM | 222 nM | 11.1 nM | 7.29 nM | 9.29 nM | 1.57 nM | 4.79 nM | 0.2 nM | 0.38 nM | 160 nM | 0.53 nM | 
CCOc1nn(CCO)c2c1/C=C/c1n[nH]c3ccc(cc13)-c1cnn(C)c1O[C@@H](C)CN(C)C2 [Example 119, 2-[(10S,17E)-16-ethoxy-8,10,12-trimethyl-2,8,10,11,12,13-hexahydro-14H-3,5-ethenotripyrazolo[3,4-f:3′,4′-j:4″,3″-n][1,4]oxazacyclopentadecin-14-yl]ethan-1-ol] | 2.34 nM | 8.5 nM | 0.63 nM | 1.25 nM | 0.61 nM | 2.12 nM | 1.05 nM | 0.14 nM | 0.04 nM | 19.4 nM | 0.33 nM | 0.26 nM
Cc1nn(C)c2c1/C=C/c1n[nH]c3ccc(cc13)-c1cnn(C)c1O[C@@H](C)CN(C)C2 [Example 120, (10S,17E)-8,10,12,14,16-pentamethyl-2,10,11,12,13,14-hexahydro-8H-3,5-ethenotripyrazolo[3,4-f:3′,4′-j:4″,3″- n][1,4]oxazacyclopentadecine] | 41.3 nM | 99.8 nM | 7.76 nM | 5.8 nM | 7.91 nM | 2.62 nM | 1.82 nM | 0.12 nM | 0.08 nM | 112 nM | 0.27 nM | 0.33 nM
Cc1onc2c1/C=C/c1n[nH]c3ccc(cc13)-c1cnn(C)c1O[C@@H](C)CN(C)C2 [Example 134, (10S,17E)-8,10,12,16-tetramethyl-2,8,10,11,12,13-hexahydro-3,5-etheno[1,2]oxazolo[3,4-f]dipyrazolo[3,4-j:4′,3′-n][1,4]oxazacyclopentadecine] | 1210 nM | > 1000 nM | 173 nM | 90.8 nM | 182 nM | 12.6 nM | 21.6 nM | 0.29 nM | 0.19 nM | 230 nM | 0.61 nM | 24 nM
CC(C)Oc1nn(CCO)c2c1/C=C/c1n[nH]c3ccc(cc13)-c1cnn(C)c1O[C@@H](C)CN(C)C2 [Example 147, 2-{(10S,17E)-8,10,12-trimethyl-16-[(propan-2-yl)oxy]-2,8,10,11,12,13-hexahydro-14H-3,5-ethenotripyrazolo[3,4-f:3′,4′-j:4″,3″-n][1,4]oxazacyclopentadecin-14-yl}ethan-1-ol] | 3.16 nM | 9.08 nM | 0.59 nM | 0.39 nM | 0.44 nM | 0.19 nM | 0.99 nM | 0.13 nM | 0.02 nM | 5.21 nM | 0.32 nM | 0.11 nM
C[C@H]1CN(C)Cc2c(c(C#N)nn2C)/C=C/c2n[nH]c3ccc(cc23)-c2cnn(C)c2O1 [Example 159, (10S,17E)-8,10,12,14-tetramethyl-2,10,11,12,13,14-hexahydro-8H-3,5-ethenotripyrazolo[3,4-f:3′,4′-j:4″,3″-n][1,4]oxazacyclopentadecine-16-carbonitrile] | 160 nM | 116 nM | 27 nM | 14.1 nM | 34.7 nM | 0.74 nM | 3.72 nM | 0.14 nM | 0.07 nM | 1000 nM | 0.38 nM | 1.54 nM
C[C@H]1CN(C)Cc2c(c(OCC#N)nn2C)/C=C/c2n[nH]c3ccc(cc23)-c2cnn(C)c2O1 [Example 163, {[(10S,17E)-8,10,12,14-tetramethyl-2,10,11,12,13,14-hexahydro-8H-3,5-ethenotripyrazolo[3,4-f:3′,4′-j:4″,3″-n][1,4]oxazacyclopentadecin-16-yl]oxy}acetonitrile] | 29.6 nM | 52 nM | 7.33 nM | 4.72 nM | 8.2 nM | 0.86 nM | 1.13 nM | 0.28 nM | 0.06 nM | 215 nM | 0.63 nM | 0.85 nM
CCOc1nn(CCO)c2c1/C=C/c1n[nH]c3cc(F)c(cc13)-c1cnn(C)c1O[C@@H](C)CN(CC)C2 [Example 288, 2-[(10S,17E)-16-ethoxy-12-ethyl-19-fluoro-8,10-dimethyl-2,8,10,11,12,13-hexahydro-14H-3,5-ethenotripyrazolo[3,4-f:3′,4′-j:4″,3″- n][1,4]oxazacyclopentadecin-14-yl]ethan-1-ol] |  |  |  |  |  |  | 1.82 nM | 0.32 nM | 0.24 nM | 131 nM | 1.31 nM | 
